This assay deals with MV-4-11 cells. The assay is described as follows: Gene expression microarray analysis (Affymetrix PrimeView) and GSEA. The assay is classed as cell-based, human. Details: RFU PODN (11730768_x_at) / Fold change /veh PODN (11730768_x_at) / RFU LINC00158 (11744669_a_at) / Fold change /veh LINC00158 (11744669_a_at) / RFU DUSP10 (11751237_a_at) / Fold change /veh DUSP10 (11751237_a_at) / RFU ID3 (11757404_x_at) / Fold change /veh ID3 (11757404_x_at) / RFU PLEKHG5 (11737974_s_at) / Fold change /veh PLEKHG5 (11737974_s_at) / RFU LRRC4B (11730491_at) / Fold change /veh LRRC4B (11730491_at) / RFU GIMAP4 (11747438_a_at) / Fold change /veh GIMAP4 (11747438_a_at) / RFU KRT8 (11758183_x_at) / Fold change /veh KRT8 (11758183_x_at) / RFU CNN1 (11734310_a_at) / Fold change /veh CNN1 (11734310_a_at) / RFU VPS37D (11726825_at) / Fold change /veh VPS37D (11726825_at) / RFU C10orf10 (11716522_x_at) / Fold change /veh C10orf10 (11716522_x_at) / RFU KIR2DL2 /// KIR2DL4 /// KIR2DL5A /// KIR2DL5B /// KIR2DS1 /// KIR2DS2 /// KIR2DS3 /// KIR2DS4 /// KIR3DL3 /// KIR3DL3 /// KIR3DS1 (11738374_at) / Fold change /veh KIR2DL2 /// KIR2DL4 /// KIR2DL5A /// KIR2DL5B /// KIR2DS1 /// KIR2DS2 /// KIR2DS3 /// KIR2DS4 /// KIR3DL3 /// KIR3DL3 /// KIR3DS1 (11738374_at) / RFU C1QL1 (11718748_at) / Fold change /veh C1QL1 (11718748_at) / RFU TMPRSS4 (11747572_a_at) / Fold change /veh TMPRSS4 (11747572_a_at) / RFU HAMP (11756126_x_at) / Fold change /veh HAMP (11756126_x_at) / RFU RNFT2 (11725882_a_at) / Fold change /veh RNFT2 (11725882_a_at) / RFU NR4A2 (11747474_a_at) / Fold change /veh NR4A2 (11747474_a_at) / RFU ABCC12 (11746883_a_at) / Fold change /veh ABCC12 (11746883_a_at) / RFU TMEM136 (11760407_x_at) / Fold change /veh TMEM136 (11760407_x_at) / RFU CLDN22 /// WWC2 (11732394_at) / Fold change /veh CLDN22 /// WWC2 (11732394_at) / RFU HLA-DPB1 (11760878_x_at) / Fold change /veh HLA-DPB1 (11760878_x_at) / RFU SPINT1 (11716480_a_at) / Fold change /veh SPINT1 (11716480_a_at) / RFU GAP43 (11754022_s_at) / Fold change /veh GAP43 (11754022_s_at) / RFU A4GNT (11735810_at) / Fold change /veh A4GNT (11735810_at) / RFU PRB3 (11715151_x_at) / Fold change /veh PRB3 (11715151_x_at) / RFU TUBB4B (11761932_at) / Fold change /veh TUBB4B (11761932_at) / RFU CAPN14 (11732068_a_at) / Fold change /veh CAPN14 (11732068_a_at) / RFU TMCC2 (11721928_a_at) / Fold change /veh TMCC2 (11721928_a_at) / RFU IRGQ (11745062_a_at) / Fold change /veh IRGQ (11745062_a_at) / RFU FAM174B (11720279_a_at) / Fold change /veh FAM174B (11720279_a_at) / RFU TMPRSS4 (11748680_a_at) / Fold change /veh TMPRSS4 (11748680_a_at) / RFU FAM212B (11763350_a_at) / Fold change /veh FAM212B (11763350_a_at) / RFU PLEKHG5 (11743358_a_at) / Fold change /veh PLEKHG5 (11743358_a_at) / RFU ZSCAN30 (11745921_a_at) / Fold change /veh ZSCAN30 (11745921_a_at) / RFU CMKLR1 (11741424_a_at) / Fold change /veh CMKLR1 (11741424_a_at) / RFU LOC101060620 /// MAPK8IP1 (11723275_at) / Fold change /veh LOC101060620 /// MAPK8IP1 (11723275_at) / RFU SPTSSB (11747773_x_at) / Fold change /veh SPTSSB (11747773_x_at) / RFU PRSS12 (11739890_at) / Fold change /veh PRSS12 (11739890_at) / RFU BIN1 (11741810_x_at) / Fold change /veh BIN1 (11741810_x_at) / RFU WNT11 (11732464_a_at) / Fold change /veh WNT11 (11732464_a_at) / RFU C10orf10 (11716521_a_at) / Fold change /veh C10orf10 (11716521_a_at) / RFU C5orf56 (11738089_at) / Fold change /veh C5orf56 (11738089_at) / RFU CYB561 (11721691_x_at) / Fold change /veh CYB561 (11721691_x_at) / RFU ANKRD19P (11752326_a_at) / Fold change /veh ANKRD19P (11752326_a_at) / RFU OR2T12 /// OR2T33 /// OR2T8 (11738714_s_at) / Fold change /veh OR2T12 /// OR2T33 /// OR2T8 (11738714_s_at) / RFU VCAN (11748164_a_at) / Fold change /veh VCAN (11748164_a_at) / RFU JSRP1 (11732532_at) / Fold change /veh JSRP1 (11732532_at) / RFU KRTAP10-11 (11738290_x_at) / Fold change /veh KRTAP10-11 (11738290_x_at) / RFU MYO3A (11730013_a_at) / Fold change /veh MYO3A (11730013_a_at) / RFU EBF3 (11725865_a_at) / Fold change /veh EBF3 (11725865_a_at) / RFU CAMK2N1 (11719241_x_at) / Fold change /veh CAMK2N1 (11719241_x_at) / RFU C5orf56 (11738088_a_at) / Fold change /veh C5orf56 (11738088_a_at) / RFU OLFML3 (11715873_a_at) / Fold change /veh OLFML3 (11715873_a_at) / RFU LOC100653217 /// NTM (11731650_a_at) / Fold change /veh LOC100653217 /// NTM (11731650_a_at) / RFU MAPK11 (11762145_a_at) / Fold change /veh MAPK11 (11762145_a_at) / RFU FIZ1 (11724087_x_at) / Fold change /veh FIZ1 (11724087_x_at) / RFU OASL (11726364_x_at) / Fold change /veh OASL (11726364_x_at) / RFU SOX15 (11748057_x_at) / Fold change /veh SOX15 (11748057_x_at) / RFU CD79A (11719716_a_at) / Fold change /veh CD79A (11719716_a_at) / RFU HIST1H1D (11736915_at) / Fold change /veh HIST1H1D (11736915_at) / RFU CASKIN2 (11723855_a_at) / Fold change /veh CASKIN2 (11723855_a_at) / RFU LOC730098 (11760151_x_at) / Fold change /veh LOC730098 (11760151_x_at) / RFU OR4N2 (11742367_at) / Fold change /veh OR4N2 (11742367_at) / RFU PRRT2 (11749266_a_at) / Fold change /veh PRRT2 (11749266_a_at) / RFU SNX32 (11753110_a_at) / Fold change /veh SNX32 (11753110_a_at) / RFU CDHR5 (11726645_a_at) / Fold change /veh CDHR5 (11726645_a_at) / RFU RCAN1 (11760418_a_at) / Fold change /veh RCAN1 (11760418_a_at) / RFU FAM167A (11723789_a_at) / Fold change /veh FAM167A (11723789_a_at) / RFU FAM26E (11764081_at) / Fold change /veh FAM26E (11764081_at) / RFU ISYNA1 (11749810_s_at) / Fold change /veh ISYNA1 (11749810_s_at) / RFU ACY1 (11761880_at) / Fold change /veh ACY1 (11761880_at) / RFU 11764098_at / Fold change /veh 11764098_at / RFU SAMD14 (11745864_x_at) / Fold change /veh SAMD14 (11745864_x_at) / RFU NPB (11741838_a_at) / Fold change /veh NPB (11741838_a_at) / RFU TMPRSS6 (11731388_a_at) / Fold change /veh TMPRSS6 (11731388_a_at) / RFU KRTAP10-2 (11738614_at) / Fold change /veh KRTAP10-2 (11738614_at) / RFU ARHGAP8 /// PRR5-ARHGAP8 (11727945_x_at) / Fold change /veh ARHGAP8 /// PRR5-ARHGAP8 (11727945_x_at) / RFU KRTAP5-7 /// NADSYN1 (11734609_at) / Fold change /veh KRTAP5-7 /// NADSYN1 (11734609_at) / RFU RASL12 (11751679_a_at) / Fold change /veh RASL12 (11751679_a_at) / RFU CDKN2B (11736163_a_at) / Fold change /veh CDKN2B (11736163_a_at) / RFU PRF1 (11729649_at) / Fold change /veh PRF1 (11729649_at) / RFU, ZNF638 /// ZNF638-IT1 / Fold change vs veh, ZNF638 /// ZNF638-IT1 / RFU, PANK3 / Fold change vs veh, PANK3 / RFU, SH3YL1 / Fold change vs veh, SH3YL1 / RFU, ZEB2 / Fold change vs veh, ZEB2 / RFU, NRIP1 / Fold change vs veh, NRIP1 / RFU, PTTG1IP / Fold change vs veh, PTTG1IP / RFU, CAPN2 / Fold change vs veh, CAPN2 / RFU, MED14 / Fold change vs veh, MED14 / RFU, SNORA58 / Fold change vs veh, SNORA58 / RFU, C1orf63 / Fold change vs veh, C1orf63 / RFU, LRRFIP1 / Fold change vs veh, LRRFIP1 / RFU, NDUFAF7 / Fold change vs veh, NDUFAF7 / RFU, SLC12A2 / Fold change vs veh, SLC12A2 / RFU, IBTK / Fold change vs veh, IBTK / RFU, ESF1 / Fold change vs veh, ESF1 / Fold change vs veh, TMEM50B / RFU, TAOK1 / Fold change vs veh, TAOK1 / RFU, ACBD3 / Fold change vs veh, ACBD3 / RFU, TMA16 / Fold change vs veh, TMA16 / RFU, RWDD3 / Fold change vs veh, RWDD3 / RFU, BCAT1 / Fold change vs veh, BCAT1 / RFU, EDEM3 / Fold change vs veh, EDEM3 / RFU, TMEM33 / Fold change vs veh, TMEM33 / RFU, WDR75 / Fold change vs veh, WDR75 / RFU, AHCTF1 / Fold change vs veh, AHCTF1 / RFU, TFRC / Fold change vs veh, TFRC / RFU, ZDHHC17 / Fold change vs veh, ZDHHC17 / RFU, NOM1 / Fold change vs veh, NOM1 / RFU, ARL8B / Fold change vs veh, ARL8B / RFU, ZBTB11 / Fold change vs veh, ZBTB11 / RFU, TAMM41 / Fold change vs veh, TAMM41 / RFU, KIAA1704 /// LOC100996395 / Fold change vs veh, KIAA1704 /// LOC100996395 / RFU, ING1 / Fold change vs veh, ING1 / RFU, TRMT61B / Fold change vs veh, TRMT61B / RFU, FUBP3 / Fold change vs veh, FUBP3 / RFU, TP53 / Fold change vs veh, TP53 / RFU, TNKS2 / Fold change vs veh, TNKS2 / RFU, ZFP14 / Fold change vs veh, ZFP14 / RFU, ACTR2 / Fold change vs veh, ACTR2 / RFU, PPP3R1 / Fold change vs veh, PPP3R1 / RFU, PIK3R1 / Fold change vs veh, PIK3R1 / RFU, HNRNPA1 / Fold change vs veh, HNRNPA1 / RFU, RNF170 / Fold change vs veh, RNF170 / RFU, ZNF28 / Fold change vs veh, ZNF28 / RFU, RNGTT / Fold change vs veh, RNGTT / RFU, OGT / Fold change vs veh, OGT / RFU, BRD1 / Fold change vs veh, BRD1 / RFU, MARS / Fold change vs veh, MARS / RFU, ZNF655 / Fold change vs veh, ZNF655 / RFU, FAHD1 / Fold change vs veh, FAHD1 / RFU, BDP1 / Fold change vs veh, BDP1 / RFU, LRRCC1 / Fold change vs veh, LRRCC1 / RFU, ARID1A / Fold change vs veh, ARID1A / RFU, ZNF146 / Fold change vs veh, ZNF146 / RFU, ZNF330 / Fold change vs veh, ZNF330 / RFU, GPN3 / Fold change vs veh, GPN3 / RFU, C9orf123 / Fold change vs veh, C9orf123 / RFU, N4BP2L2 / Fold change vs veh, N4BP2L2 / RFU, ARFIP1 / Fold change vs veh, ARFIP1 / RFU, FAM179B / Fold change vs veh, FAM179B / RFU, BCL10 / Fold change vs veh, BCL10 / RFU, UHRF1BP1L / Fold change vs veh, UHRF1BP1L / RFU, BET1 / Fold change vs veh, BET1 / RFU, CNOT2 / Fold change vs veh, CNOT2 / RFU, ZNF268 / Fold change vs veh, ZNF268 / Fold change vs veh, ZNF507 / RFU, DGCR2 / Fold change vs veh, DGCR2 / RFU, WDSUB1 / Fold change vs veh, WDSUB1 / Fold change vs veh, HSP90B1 /// MIR3652 / RFU, ADSS / Fold change vs veh, ADSS / RFU, GK / Fold change vs veh, GK / RFU, ZNF148 / Fold change vs veh, ZNF148 / RFU, TAF9 / Fold change vs veh, TAF9 / RFU, SLC1A5 / Fold change vs veh, SLC1A5 / RFU, SLMO2 / Fold change vs veh, SLMO2 / RFU, ABCC4 / Fold change vs veh, ABCC4 / RFU, LOC101060439 /// RAP1B / Fold change vs veh, LOC101060439 /// RAP1B / RFU, RFX7 / Fold change vs veh, RFX7 / RFU, GTPBP10 / Fold change vs veh, GTPBP10 / RFU, CNEP1R1 / Fold change vs veh, CNEP1R1 / RFU, BIVM-ERCC5 /// ERCC5 / Fold change vs veh, BIVM-ERCC5 /// ERCC5 / RFU, ILF3 / Fold change vs veh, ILF3 / RFU 11762660_at / Fold change /veh 11762660_at / RFU VCAN (11757783_s_at) / Fold change /veh VCAN (11757783_s_at) / RFU DDX43 (11728927_at) / Fold change /veh DDX43 (11728927_at) / RFU KRT8 (11758188_x_at) / Fold change /veh KRT8 (11758188_x_at) / RFU NKD1 (11759106_at) / Fold change /veh NKD1 (11759106_at) / RFU SRD5A1 (11742802_a_at) / Fold change /veh SRD5A1 (11742802_a_at) / RFU TPSAB1 /// TPSB2 (11721975_s_at) / Fold change /veh TPSAB1 /// TPSB2 (11721975_s_at) / RFU GSTM3 (11746129_a_at) / Fold change /veh GSTM3 (11746129_a_at) / RFU IL23R (11737362_x_at) / Fold change /veh IL23R (11737362_x_at) / RFU TMEM51 (11727254_a_at) / Fold change /veh TMEM51 (11727254_a_at) / RFU PIWIL2 (11732686_x_at) / Fold change /veh PIWIL2 (11732686_x_at) / RFU ORM1 (11744905_x_at) / Fold change /veh ORM1 (11744905_x_at) / RFU CCDC152 (11743942_at) / Fold change /veh CCDC152 (11743942_at) / RFU ECM1 (11717891_a_at) / Fold change /veh ECM1 (11717891_a_at) / RFU IL23R (11748794_a_at) / Fold change /veh IL23R (11748794_a_at) / RFU TNFAIP8L3 (11732012_x_at) / Fold change /veh TNFAIP8L3 (11732012_x_at) / RFU MBOAT4 (11741988_at) / Fold change /veh MBOAT4 (11741988_at) / RFU 11764193_at / Fold change /veh 11764193_at / RFU TMEM53 (11763286_at) / Fold change /veh TMEM53 (11763286_at) / RFU MAGEB2 (11727129_at) / Fold change /veh MAGEB2 (11727129_at) / RFU TMEM200A (11744735_a_at) / Fold change /veh TMEM200A (11744735_a_at) / RFU CCDC152 (11751479_a_at) / Fold change /veh CCDC152 (11751479_a_at) / RFU FAM211A (11726209_a_at) / Fold change /veh FAM211A (11726209_a_at) / RFU RGS16 (11746705_a_at) / Fold change /veh RGS16 (11746705_a_at) / RFU VCAN (11755009_s_at) / Fold change /veh VCAN (11755009_s_at) / RFU RHOB (11743442_s_at) / Fold change /veh RHOB (11743442_s_at) / RFU RGS16 (11720943_a_at) / Fold change /veh RGS16 (11720943_a_at) / RFU RGS16 (11720944_at) / Fold change /veh RGS16 (11720944_at) / RFU, VPS4B / Fold change vs veh, VPS4B / RFU, CREB1 / Fold change vs veh, CREB1 / RFU, DNAJC13 / Fold change vs veh, DNAJC13 / RFU, GNAQ / Fold change vs veh, GNAQ / RFU, CDK5R1 / Fold change vs veh, CDK5R1 / RFU, ZRANB3 / Fold change vs veh, ZRANB3 / RFU, CUL4A / Fold change vs veh, CUL4A / RFU, CCNY / Fold change vs veh, CCNY / RFU, UFL1 / Fold change vs veh, UFL1 / RFU, COG3 / Fold change vs veh, COG3 / RFU, DIAPH2 / Fold change vs veh, DIAPH2 / RFU, SKA2 / Fold change vs veh, SKA2 / RFU, AFF3 / Fold change vs veh, AFF3 / RFU, LMF1 / Fold change vs veh, LMF1 / RFU, IPO11 / Fold change vs veh, IPO11 / RFU, DFFB / Fold change vs veh, DFFB / RFU, FOXP1 / Fold change vs veh, FOXP1 / RFU, CARD8 / Fold change vs veh, CARD8 / RFU, STRN3 / Fold change vs veh, STRN3 / RFU, ADK / Fold change vs veh, ADK / RFU, RASSF2 / Fold change vs veh, RASSF2 / RFU, WIPF1 / Fold change vs veh, WIPF1 / RFU, LARP1B / Fold change vs veh, LARP1B / RFU, RASA1 / Fold change vs veh, RASA1 / RFU, RB1 / Fold change vs veh, RB1 / RFU, PPFIA1 / Fold change vs veh, PPFIA1 / RFU, MAT2A / Fold change vs veh, MAT2A / RFU, CCT5 / Fold change vs veh, CCT5 / RFU, WDR92 / Fold change vs veh, WDR92 / RFU, CUX1 / Fold change vs veh, CUX1 / RFU, TTC7A / Fold change vs veh, TTC7A / RFU, TMEM135 / Fold change vs veh, TMEM135 / RFU, DEPTOR / Fold change vs veh, DEPTOR / RFU, CPM / Fold change vs veh, CPM / RFU, DNAJB6 / Fold change vs veh, DNAJB6 / RFU, CACNA2D3 / Fold change vs veh, CACNA2D3 / RFU, DTX4 / Fold change vs veh, DTX4 / RFU, TFCP2 / Fold change vs veh, TFCP2 / RFU, GMCL1 /// GMCL1P1 / Fold change vs veh, GMCL1 /// GMCL1P1 / RFU, AEBP2 / Fold change vs veh, AEBP2 / RFU, SNHG1 /// SNORD22 /// SNORD25 /// SNORD26 /// SNORD27 /// SNORD28 /// SNORD29 /// SNORD31 / Fold change vs veh, SNHG1 /// SNORD22 /// SNORD25 /// SNORD26 /// SNORD27 /// SNORD28 /// SNORD29 /// SNORD31 / Fold change (Aza/veh), C12orf56 (ProbeSet 11735607_a_at) / Fold change (ACY-1035/veh), C12orf56 (ProbeSet 11735607_a_at) / Fold change (Aza/veh), FGFR1OP (ProbeSet 11751329_s_at) / Fold change (ACY-1035/veh), FGFR1OP (ProbeSet 11751329_s_at) / Fold change (Aza/veh), VPS36 (ProbeSet 11739960_a_at) / Fold change (ACY-1035/veh), VPS36 (ProbeSet 11739960_a_at) / RFU SYPL1 (11715823_x_at) / Fold change /veh SYPL1 (11715823_x_at) / RFU IGFBP7 (11715501_s_at) / Fold change /veh IGFBP7 (11715501_s_at) / RFU REEP3 (11722064_at) / Fold change /veh REEP3 (11722064_at) / RFU IGLL1 (11728026_x_at) / Fold change /veh IGLL1 (11728026_x_at): dose or concentration left out as unconfirmed. To be noted: MV-4-11 cells, 48 hours.

With `Nc1ccc(-c2cccs2)cc1NC(=O)c1ccc2c(c1)cc(C1CC1)n2CCN1CCOCC1` [ACY-1035], the “Fold change /veh TMEM53 (11763286_at)” value turned out to be 0.91.

These data come from PMC5218480 (PLoS ONE, 2017).
